Experimental data taken from paper PMC9820279 (International Journal of Molecular Sciences, 2022).
Read-outs that look alike come from different tables or passages of the source. Blank lines part the entries; values can stand above or below the molecule they belong to.

System: HBMEC monolayer
[1] = matrix ASFE extract 24 µg/mL, 2 h incubation, n.d = not detected in lower compartment
[2] = matrix ASFE extract 24 µg/mL, 4 h incubation, n.d = not detected in lower compartment

Molecule: C=C(C)[C@@H]1CCC2=CC(=O)C[C@@H](C)[C@]2(C)C1 [Nootkatone]
Te % (SEM) 2 h (human): 29.9 (0.9) %
Te % (SEM) 4 h (human): 43.0 (3.4) %

Molecule: CC(=O)OC(C)(C)[C@@H]1CC[C@@]2(C)CO[C@]3(C)C=CO[C@]23C1 [Phytuberin]
Te % (SEM) 2 h: 33.4 (1.5) %
Te % (SEM) 4 h: 79.6 (2.2) %

Te % (SEM) 2 h [1]: 45.1 (3.8) %
Te % (SEM) 4 h [2]: 71.7 (3.2) %
Molecule: O=C(O)c1ccc(O)c(O)c1 [Protocatechuic acid]

Molecule: O=Cc1ccc(O)c(O)c1 [Protocatechuic aldehyde]
Te % (SEM) 2 h [1]: 20.3 (1.5) %
Te % (SEM) 4 h [2]: 78.2 (5.7) %

Molecule: O=C(O)[C@]1(O)C[C@@H](O)[C@@H](O)[C@H](O)C1 [Quinic acid]
Te % (SEM) 2 h (human, 2 h, 30 µg/mL): 20.1 (1.6) %
Te % (SEM) 4 h (human, 4 h, 30 µg/mL): 52.5 (1.4) %

Molecule: O=C(/C=C/c1ccc(O)c(O)c1)O[C@H](Cc1ccc(O)c(O)c1)C(=O)O [Rosmarinic acid]
Te % (SEM) 2 h (human): 41.0 (2.3) %
Te % (SEM) 4 h (human): 90.3 (4.2) %

Molecule: C[C@@H]1O[C@@H](OC[C@H]2O[C@@H](Oc3c(-c4ccc(O)c(O)c4)oc4cc(O)cc(O)c4c3=O)[C@H](O)[C@@H](O)[C@@H]2O)[C@H](O)[C@H](O)[C@H]1O [Rutin]
Detection / transport to brain side of HBMEC-BBB model: poor transport trough the BBB

Molecule: CC[C@H](/C=C/[C@@H](C)[C@H]1CC[C@H]2[C@@H]3CC=C4C[C@@H](O)CC[C@]4(C)[C@H]3CC[C@]12C)C(C)C [Stigmasterol]
Te % (SEM) 2 h (human): 40.4 (2.2) %
Te % (SEM) 4 h (human): 64.5 (0.4) %

Molecule: COc1cc(C=O)cc(OC)c1O [Syringaldehyde]
Te % (SEM) 2 h (human): 22.7 (1.5)/33.4 (2.2) %
Te % (SEM) 4 h (human): 45.7 (3.2)/42.0 (1.4) %
Te % (SEM) 2 h [1]: 22.7 (1.5)/33.4 (2.2) %
Te % (SEM) 4 h [2]: 45.7 (3.2)/42.0 (1.4) %

Molecule: Cc1ccc(C(C)C)c(O)c1 [Thymol]
Te % (SEM) 2 h (human, 2 h, 40 µg/mL): 34.1 (0.1) %
Te % (SEM) 4 h (human, 4 h, 40 µg/mL): 47.0 (1.7) %

Molecule: CCC(O)C1CC(C)C2(CC(=O)C3(C)C4=C(CCC32C)C2(C)CCC(=O)C(C)(CO)C2CC4)O1 [Triterpene, (23S,24S)-17,23-Epoxy-24,29-dihydroxy-27-norlanost-8-ene-3,15-dione]
Te % (SEM) 2 h [1]: 30.4 (1.7) %
Te % (SEM) 4 h [2]: 82.9 (5.3) %

Molecule: C=C(C)[C@@H]1CCC2=CCC[C@@H](C)[C@]2(C)C1 [Valencene]
Te % (SEM) 2 h: 51.9 (4.2) %

Molecule: COc1cc(C(=O)O)ccc1O [Vanillic acid]
Te % (SEM) 2 h [1]: 38.9 (1.2) %
Te % (SEM) 4 h [2]: 42.2 (0.7) %

Molecule: CC(C)C1CCC2(C)C3CC=C(C=O)C2C13 (stereo not drawn) [Ylangenal]
Te % (SEM) 2 h: 32.0 (2.7) %
Te % (SEM) 4 h: 36.9 (0.4) %

Molecule: O=C(O)C=Cc1ccc(O)cc1 [p-Coumaric acid]
Te % (SEM) 2 h (human): 9.1 (0.6) %
Te % (SEM) 4 h (human): 37.8 (2.5) %

Molecule: O=C(O)c1ccc(O)cc1 [p-Salycilic acid]
Te % (SEM) 2 h: 25.5 (1.8) %
Te % (SEM) 4 h: 43.4 (1.3) %

Molecule: Cc1c(C)c2c(c(C)c1O)CC[C@@](C)(CCC[C@H](C)CCC[C@H](C)CCCC(C)C)O2 [α-Tocopherol]
Te % (SEM) 2 h (human, 2 h, 15 µg/mL): 18.3 (0.8) %
Te % (SEM) 2 h (human, 2 h, 40 µg/mL): 19.8 (0.2) %
Te % (SEM) 4 h (human, 4 h, 15 µg/mL): 29.1 (1.5) %
Te % (SEM) 4 h (human, 4 h, 40 µg/mL): 39.7 (3.0) %

Molecule: C=C1CCC[C@]2(C)CC[C@H]3C(C)(C)C[C@]132 [β-Panasinsene]
Te % (SEM) 2 h: 33.4 (1.5) %
Te % (SEM) 4 h: 34.8 (1.0) %

Molecule: C=CC(=C)CC/C=C(\C)CC/C=C(\C)C=O [β-Sinensal]
Te % (SEM) 2 h: 31.6 (1.2) %
Te % (SEM) 4 h: 38.2 (2.4) %

Molecule: Cc1cc(O)c(C)c2c1O[C@](C)(CCC[C@H](C)CCC[C@H](C)CCCC(C)C)CC2 [β-Tocopherol]
Te % (SEM) 4 h: 15.2 (0.8) %

Molecule: C=CC1(C)CCC(=C(C)C)CC1C(=C)C (stereo not drawn) [γ-Elemene]
Te % (SEM) 2 h: 30.1 (0.1) %
Te % (SEM) 4 h: 41.8 (1.7) %

Molecule: CC[C@@H](CC[C@@H](C)[C@H]1CC[C@H]2[C@@H]3CC=C4C[C@@H](O)CC[C@]4(C)[C@H]3CC[C@]12C)C(C)C [γ-Sitosterol]
Te % (SEM) 2 h: 12.9 (0.6)/11.3 (0.5) %
Te % (SEM) 4 h: 19.2 (1.3)/12.1 (0.6) %

Molecule: Cc1c(O)cc2c(c1C)O[C@](C)(CCC[C@H](C)CCC[C@H](C)CCCC(C)C)CC2 [γ-Tocopherol]
Te % (SEM) 2 h: 31.5 (0.8)/27.3 (2.1) %
Te % (SEM) 4 h: 42.0 (0.8)/30.0 (1.6) %

Molecule: CC1=C[C@@H]2C(=C(C)CC[C@H]2C(C)C)CC1 [δ-Cadinene]
Te % (SEM) 2 h: 21.5 (0.8) %
Te % (SEM) 4 h: 28.9 (2.4) %

Te % (SEM) 2 h: 14.3 (0.8) %
Te % (SEM) 4 h: 29.0 (0.1) %
Molecule: Caffeoylshikimic acid

Te % (SEM) 2 h: 51.5 (1.8) %
Molecule: Cymenol

Molecule: Farnesene
Te % (SEM) 2 h: 46.0 (2.1) %
Te % (SEM) 4 h: 50.9 (3.1) %

Molecule: Phytol
Te % (SEM) 2 h (human): 15.6 (0.3) %
Te % (SEM) 4 h (human): 43.5 (3.7) %

Te % (SEM) 2 h: 2.7 (0.2) %
Te % (SEM) 4 h: 25.6 (1.5) %
Molecule: Tocospiro A

Te % (SEM) 2 h: 1.9 (0.1) %
Te % (SEM) 4 h: 26.2 (1.0) %
Molecule: Tocospiro B
